Reference: patent publication US20080039442A1, “Compounds With Kv4 Ion Channel Activity” (Devgen NV, priority 2004, published 2008)
pIC50: −log10 of the molar value. Like-named read-outs stand apart in the source and are kept apart here.

Target: T1, human Kv4.3/KChIP2.2 potassium channel (Homo sapiens, UniProt Q9UK17)
T1 construct: expressed in transfected cells
T1 sequence (Q9UK17 1-655): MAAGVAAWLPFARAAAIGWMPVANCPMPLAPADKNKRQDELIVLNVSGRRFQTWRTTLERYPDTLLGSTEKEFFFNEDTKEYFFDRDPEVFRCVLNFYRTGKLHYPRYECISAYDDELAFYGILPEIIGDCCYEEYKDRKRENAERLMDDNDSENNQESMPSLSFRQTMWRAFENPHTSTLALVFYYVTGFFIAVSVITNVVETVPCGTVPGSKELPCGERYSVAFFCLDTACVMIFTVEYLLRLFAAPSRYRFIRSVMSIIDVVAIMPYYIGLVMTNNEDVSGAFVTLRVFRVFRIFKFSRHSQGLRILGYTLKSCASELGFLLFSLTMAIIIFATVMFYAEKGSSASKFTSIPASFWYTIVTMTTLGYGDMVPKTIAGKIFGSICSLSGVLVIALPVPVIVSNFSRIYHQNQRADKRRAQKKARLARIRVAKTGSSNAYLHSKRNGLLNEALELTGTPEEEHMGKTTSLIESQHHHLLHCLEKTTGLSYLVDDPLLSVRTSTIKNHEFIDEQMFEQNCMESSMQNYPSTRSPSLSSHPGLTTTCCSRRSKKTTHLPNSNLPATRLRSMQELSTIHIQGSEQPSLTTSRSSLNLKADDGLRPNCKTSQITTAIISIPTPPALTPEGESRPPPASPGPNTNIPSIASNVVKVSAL
T1 sequence (Q9NS61 1-270 partner): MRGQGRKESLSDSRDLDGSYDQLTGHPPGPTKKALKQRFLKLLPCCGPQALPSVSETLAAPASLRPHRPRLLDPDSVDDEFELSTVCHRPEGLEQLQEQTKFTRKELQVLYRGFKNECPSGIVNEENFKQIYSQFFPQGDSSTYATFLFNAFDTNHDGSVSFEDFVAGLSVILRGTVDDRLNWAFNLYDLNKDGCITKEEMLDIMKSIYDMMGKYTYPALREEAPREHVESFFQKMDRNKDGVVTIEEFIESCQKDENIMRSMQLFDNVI
Assay: Whole cell patch clamp, CHO-K1 cells stably expressing Kv4.3/KChIP2.2
Assay type: cell-based
Settings: for IC50: read-out: IC50 (μM) Kv4.3; for pIC50: Table 12, read-out: Kv4.3 charge IC50; for remaining activity at 1 µM: CHO-K1
Summary of the method: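 Whole-cell patch clamp at 20-25 °C, bath pH 7.4 with 4 mM KCl, pipette 130 mM KCl/10 mM EGTA/5 mM Na2ATP. Compound at […] (≤0.1% DMSO), n=2; pulses from −100 mV to +40 mV for 300 ms at 0.1 Hz, P/n (n=5) leak-corrected, cells with 1–50 nA currents only.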

[1] = Table 6, estimated from 2 μM, hill=1, ymax=100
[2] = read-out: Kv4.3 charge in %: remaining current measured after application of the compound and relative to the blank
[3] = read-out: Kv4.3 peak in %: remaining peak height measured after application of the compound and relative to the blank

| Molecule | IC50 [1] [µM] | IC50 (Table 9) [µM] | pIC50 | remaining activity at 1 µM [2] [%] | remaining activity at 1 µM [3] [%] |
| --- | --- | --- | --- | --- | --- |
| 5-chloro-benzofuran-2- carboxylic acid 2,4- dimethoxy- benzylamide [Compound 2] | 1.75 | 1.75 | 5.76 | – | – |
| 5-chloro-benzofuran-2- carboxylic acid [3- (10,11-dihydro- dibenzo[a,d]cyclohepten- 5-ylidene)-propyl]- methyl-amide [Compound 5] | 16 | – | 4.80 | – | – |
| C[C@@H](NC(=O)c1cc2cc(Cl)ccc2o1)c1ccc([N+](=O)[O-])cc1 [Compound 1, 5-chloro-benzofuran-2-carboxylic acid [(R)-1-(4-nitro-phenyl)-ethyl]-amide] | – | – | 5.68 | – | – |
| O=C(NCc1ccc(OC(F)(F)F)cc1)c1cc2cc(Cl)ccc2o1 [Compound 89, 5-chloro-benzofuran-2-carboxylic acid 4-trifluoromethoxy-benzylamide] | – | – | – | 37 | 77 |
| Cc1c(C(=O)NCc2ccc(F)c(C(F)(F)F)c2)sc2ccc(Cl)cc12 [Compound 107, 5-chloro-3-methyl-benzo[b]thiophene-2-carboxylic acid 4-fluoro-3-trifluoromethyl-benzylamide] | – | – | – | 30 | 87 |
